Data: PMC10591299, “Targeting SHP2 with an Active Site Inhibitor Blocks Signaling and Breast Cancer Cell Phenotypes” (ACS Bio & Med Chem Au, 2023)
pIC50: −log10 of the molar value.

Columns and labels:
[1] = biological target: T1, SHP1 (Homo sapiens, UniProt P29350); assay: PTPase assay, GST-fusion PTP domain of SHP1, DiFMUP substrate; type: biochemical
T1 construct: The GST fusion PTP domains of SHP1 and PTP1B were expressed and purified in a fashion similar to that of SHP2; GST; made in house
T1 sequence (P29350 244-515 limits assumed): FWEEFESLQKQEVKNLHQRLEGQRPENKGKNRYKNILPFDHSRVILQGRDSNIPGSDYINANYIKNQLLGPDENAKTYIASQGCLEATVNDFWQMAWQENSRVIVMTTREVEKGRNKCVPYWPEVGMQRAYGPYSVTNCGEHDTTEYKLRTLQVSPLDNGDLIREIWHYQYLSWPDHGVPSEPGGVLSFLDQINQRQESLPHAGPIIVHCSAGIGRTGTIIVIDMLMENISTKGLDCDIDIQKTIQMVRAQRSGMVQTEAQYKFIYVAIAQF
Protocol: After completion of synthesis, both CNBCA and CNBBA were purified on silica gel, and purity was determined by HPLC. The purified compounds were then tested for their effect on the SHP2 enzyme activity and on the activity of the selected control PTPs (SHP1 and PTP1B) by the phosphotyrosyl phosphatase (PTPase) assay as described previously.[30],[31] First, the GST fusion of the PTP domains of SHP2, SHP1, and PTP1B were produced and purified as reported by us previously.[32] The reactions were performed in a buffer containing 10 mM Tris-HCl (pH 7.2), 100 mM NaCl, 1 mM EDTA, 1 mM dithiothreitol (DTT), and 0.01% Tween-20. […] The complete mixture was incubated at 37 °C for 20 min, and fluorescence intensity was measured by the Synergy 4 plate reader at the excitation and emission wavelengths of 360 and 460 nm, respectively. The half inhibitory concentration (IC50) value of each compound was calculated and plotted using Graphpad Prism software. […]
We used the PTPase assay described previously[30],[31] to evaluate the effect of the newly synthesized compounds on the enzymatic activity of SHP2, SHP1, and PTP1B. […] The mixtures were incubated at 37 °C for 20 min and transferred to 96 well plates, and the fluorescence intensity was measured by a Synergy 4 plate reader at the excitation and emission wavelengths of 360 and 460 nm, respectively. […]

[2] = biological target: T2, SHP2 (Homo sapiens, UniProt Q06124); assay: Enzyme kinetic study (Michaelis-Menten, Lineweaver-Burk) with DiFMUP; type: biochemical; conditions: Km increased without change in Vmax
T2 construct: the GST fusion of the PTP domains of SHP2, SHP1, and PTP1B were produced and purified as reported by us previously; GST; made in house
T2 sequence (Q06124 247-517 limits assumed): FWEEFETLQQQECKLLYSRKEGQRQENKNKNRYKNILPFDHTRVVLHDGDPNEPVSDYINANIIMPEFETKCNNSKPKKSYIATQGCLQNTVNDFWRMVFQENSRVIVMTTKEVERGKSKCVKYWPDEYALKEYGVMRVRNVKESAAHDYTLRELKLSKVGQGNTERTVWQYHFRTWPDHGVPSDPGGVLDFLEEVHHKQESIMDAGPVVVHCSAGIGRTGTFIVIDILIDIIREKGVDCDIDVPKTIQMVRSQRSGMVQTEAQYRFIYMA
Protocol: As such, its mechanism of inhibition is expected to be through competitive binding to the active site. To verify this point, we conducted enzyme kinetic studies using the artificial substrate DiFMUP in the presence and absence of CNBCA. Briefly, 400 μM DiFMUP in the PTPase buffer was added to the 12th well in the 96-well plate and then serially diluted to as low as 3.12 μM in the successive wells. After adding the enzyme to a final concentration of 1.0 nM in a total volume of 100 μL, the fluorescence of the enzyme reaction rate was measured for a total of 3 min at 10 s interval in the Synergy 4 plate reader at the excitation and emission wavelengths of 360 and 460 nm, respectively. The data was transformed into relative fluorescence unit (RFU) per second and plotted using the Graphpad software to produce the Michaelis–Menten and the Lineweaver–Burk plots.
In these reactions, the enzyme was added last, and the fluorescence was read for 3 min at 10 s interval. Changes in fluorescence intensity were used to calculate the Km of the SHP2 enzyme for DiFMUP in the presence and absence of CNBCA. The Graphpad Prism was used to prepare the Michaelis–Menten and Lineweaver–Burk plots and to determine the Km values.

pIC50 ([1]; PTP domain, 1 nM enzyme, 35 μM DiFMUP): 4.46 | selectivity ratio SHP1 versus SHP2 ([1]; SHP2 IC50 as reference): 39.77 fold | mechanism of inhibition [2]: competitive inhibitor
Structure (SMILES): CCCCCCCCCOc1ccc(-c2ccc(C(=O)O)cc2)cc1CCCC(=O)O [CNBCA, 3′-(3-carboxypropyl)-4′-(nonyloxy)-[1,1′-biphenyl]-4-carboxylic acid]
